# From ChEMBL document CHEMBL4118201, “Design and synthesis of new antitumor agents with the 1,7-epoxycyclononane framework. Study of their anticancer action mechanism by a model compound” (Bioorg Med Chem, 2018)
# Active and inactive are the calls of the source. The calls are words filed in the database; no cut-off is given here.
# Experiments:
# HL-60 [1] = assay: Cell cycle arrest in human HL60 cells assessed as accumulation at sub-G0/G1 phase at IC50 after 24 hrs by propidium iodide staining based flow cytometric method (reference value: 3.9%); type: functional
# HL-60 [2] = assay: Cell cycle arrest in human HL60 cells assessed as accumulation at G2/M-phase at IC50 after 24 hrs by propidium iodide staining based flow cytometric method (reference value: 14.06%); type: functional
# HL-60 [3] = assay: Cell cycle arrest in human HL60 cells assessed as accumulation at S-phase at IC50 after 24 hrs by propidium iodide staining based flow cytometric method (reference value: 34.24%); type: functional
# HL-60 [4] = assay: Cell cycle arrest in human HL60 cells assessed as accumulation at G0/G1 phase at IC50 after 24 hrs by propidium iodide staining based flow cytometric method (reference value: 51.7%); type: functional
# HL-60 [5] = assay: Antiproliferative activity against human HL60 cells after 24 hrs by XTT assay; type: functional, cell-based; conditions: HL-60, 24 h
# MCF7 [6] = assay: Antiproliferative activity against human MCF7 cells after 72 hrs by XTT assay; type: functional, cell-based; conditions: MCF7, 72 h
# MCF7 [7] = assay: Antiproliferative activity against human MCF7 cells after 24 hrs by XTT assay; type: functional, cell-based; conditions: MCF7, 24 h
# HL-60 [8] = assay: Antiproliferative activity against human HL60 cells after 72 hrs by XTT assay; type: functional, cell-based; conditions: HL-60, 72 h
# MCF7 [9] = assay: Induction of apoptosis in human MCF7 cells assessed as cell blobbing at IC50 after 24 hrs by DAPI staining based immunofluorescence microscopic analysis; type: functional
# MCF7 [10] = assay: Cell cycle arrest in human MCF7 cells assessed as accumulation at G0/G1 phase at IC50 after 24 hrs by propidium iodide staining based flow cytometric method; type: functional
# DNA [11] = assay: Binding affinity to Escherichia coli supercoiled pBR322 DNA assessed as supercoiled areas of plasmid DNA at 0.005 molar ratio per nucleotide incubated for 24 hrs under dark condition by tapping mode atomic force microscopic analysis (reference value: 3.5%); type: nucleic-acid assay
# MCF7 [12] = assay: Induction of apoptosis in human MCF7 cells assessed as reduction in cell size at IC50 after 24 hrs by DAPI staining based immunofluorescence microscopic analysis; type: functional
# MCF7 [13] = assay: Induction of apoptosis in human MCF7 cells assessed as nuclear fragmentation at IC50 after 24 hrs by DAPI staining based immunofluorescence microscopic analysis; type: functional, cell-based
# DNA [14] = assay: Binding affinity to Escherichia coli supercoiled pBR322 DNA assessed as DNA undergoing cross links at 0.005 molar ratio per nucleotide incubated for 24 hrs under dark condition by tapping mode atomic force microscopic analysis; type: nucleic-acid assay
# Calf thymus DNA = assay: Binding affinity to calf thymus DNA at 0.1 to 0.5 molar ratio per nucleotide incubated for 24 hrs under dark condition by circular dichroism spectral analysis; type: nucleic-acid assay; conditions: Bos taurus
# MCF7 [15] = assay: Induction of apoptosis in human MCF7 cells assessed as DNA condensation at IC50 after 24 hrs by DAPI staining based immunofluorescence microscopic analysis; type: functional, cell-based
# DNA [16] = assay: Binding affinity to Escherichia coli supercoiled pBR322 DNA assessed as 0 to 2 cross links per DNA molecule at 0.005 molar ratio per nucleotide incubated for 24 hrs under dark condition by tapping mode atomic force microscopic analysis (reference value: 49%); type: nucleic-acid assay
# HL-60 [17] = assay: Induction of apoptosis in human HL60 cells assessed as early apoptotic cells at IC50 after 24 hrs by annexin-V-FITC/propidium iodide staining based flow cytometric analysis (reference value: 4.2%); type: functional
# HL-60 [18] = assay: Induction of apoptosis in human HL60 cells assessed as viable cells at IC50 after 24 hrs by annexin-V-FITC/propidium iodide staining based flow cytometric analysis (reference value: 93.81%); type: functional
# DNA [19] = assay: Binding affinity to Escherichia coli supercoiled pBR322 DNA assessed as 9 to 10 cross links per DNA molecule at 0.005 molar ratio per nucleotide incubated for 24 hrs under dark condition by tapping mode atomic force microscopic analysis (reference value: 2%); type: nucleic-acid assay
# HL-60 [20] = assay: Induction of apoptosis in human HL60 cells assessed as late apoptotic cells at IC50 after 24 hrs by annexin-V-FITC/propidium iodide staining based flow cytometric analysis (reference value: 1.93%); type: functional
# DNA [21] = assay: Binding affinity to Escherichia coli supercoiled pBR322 DNA assessed as DNA structural variation at 0.1 to 0.5 molar ratio per nucleotide incubated for 24 hrs under dark condition by ethidium bromide staining based agarose gel electrophoresis; type: nucleic-acid assay
# DNA [22] = assay: Binding affinity to Escherichia coli supercoiled pBR322 DNA assessed as 6 to 8 cross links per DNA molecule at 0.005 molar ratio per nucleotide incubated for 24 hrs under dark condition by tapping mode atomic force microscopic analysis (reference value: 12%); type: nucleic-acid assay
# MCF7 [23] = assay: Induction of apoptosis in human MCF7 cells assessed as formation of apoptotic bodies at IC50 after 24 hrs by DAPI staining based immunofluorescence microscopic analysis; type: functional, cell-based
# MCF7 [24] = assay: Cell cycle arrest in human MCF7 cells assessed as accumulation at sub-G0/G1 phase at IC50 after 24 hrs by propidium iodide staining based flow cytometric method; type: functional
# MCF7 [25] = assay: Cell cycle arrest in human MCF7 cells assessed as accumulation at G2/M-phase at IC50 after 24 hrs by propidium iodide staining based flow cytometric method; type: functional
# MCF7 [26] = assay: Induction of apoptosis in human MCF7 cells assessed as nuclear condensation at IC50 after 24 hrs by DAPI staining based immunofluorescence microscopic analysis; type: functional, cell-based
# DNA [27] = assay: Binding affinity to Escherichia coli supercoiled pBR322 DNA assessed as DNA undergoing kinks at 0.005 molar ratio per nucleotide incubated for 24 hrs under dark condition by tapping mode atomic force microscopic analysis; type: nucleic-acid assay
# MCF7 [28] = assay: Induction of apoptosis in human MCF7 cells assessed as microtubule disintegration at IC50 after 24 hrs by indirect immunofluorescence analysis; type: functional, cell-based
# DNA [29] = assay: Binding affinity to Escherichia coli supercoiled pBR322 DNA assessed as more than 10 cross links per DNA molecule at 0.005 molar ratio per nucleotide incubated for 24 hrs under dark condition by tapping mode atomic force microscopic analysis (reference value: 1%); type: nucleic-acid assay
# HL-60 [30] = assay: Induction of apoptosis in human HL60 cells assessed as necrotic cells at IC50 after 24 hrs by annexin-V-FITC/propidium iodide staining based flow cytometric analysis (reference value: 0.06%); type: functional
# MCF7 [31] = assay: Cell cycle arrest in human MCF7 cells assessed as accumulation at S-phase at IC50 after 24 hrs by propidium iodide staining based flow cytometric method; type: functional
# MCF7 [32] = assay: Induction of apoptosis in human MCF7 cells assessed as shrinkage of cell core at IC50 after 24 hrs by DAPI staining based immunofluorescence microscopic analysis; type: functional
# DNA [33] = assay: Binding affinity to Escherichia coli supercoiled pBR322 DNA assessed as 3 to 5 cross links per DNA molecule at 0.005 molar ratio per nucleotide incubated for 24 hrs under dark condition by tapping mode atomic force microscopic analysis (reference value: 37%); type: nucleic-acid assay
smiles,measurement,setting,value
COC(=O)Nc1nc2cc(C(=O)c3cccs3)ccc2[nH]1 [NOCODAZOLE],Activity,HL-60 [1],14.11%
same,Activity,HL-60 [2],33.46%
same,Activity,HL-60 [3],21.26%
same,Activity,HL-60 [4],45.28%
C[C@H]1[C@H]2CC[C@H](O2)[C@]2(C)[C@@H](OCc3ccccc3)C(=O)C[C@]12O (relative stereo),IC50,HL-60 [5],> 250 µM
same,IC50,MCF7 [6],> 250 µM
same,IC50,MCF7 [7],> 250 µM
same,IC50,HL-60 [8],> 250 µM
CC(=O)O[C@H](OCc1ccccc1)[C@]1(C)C(=O)[C@@H](I)C(=O)[C@@H](C)[C@@H]2CC[C@H]1O2,Activity,HL-60 [1],31.14%
same,Activity,HL-60 [2],6.33%
same,Activity,MCF7 [9],Active
same,Activity,MCF7 [10],Active
same,Activity,DNA [11],3.6%
same,Activity,MCF7 [12],Active
same,Activity,MCF7 [13],Active
same,Activity,DNA [14],inactive
same,Activity,Calf thymus DNA,inactive
same,IC50,HL-60 [5],3.05 µM
same,Activity,MCF7 [15],Active
same,Activity,DNA [16],51%
same,IC50,MCF7 [6],18.8 µM
same,Activity,HL-60 [3],26.31%
same,Activity,HL-60 [17],16.97%
same,Activity,HL-60 [18],55.71%
same,Activity,DNA [19],1%
same,IC50,MCF7 [7],27.2 µM
same,Activity,HL-60 [20],26.85%
same,Activity,DNA [21],inactive
same,Activity,DNA [22],19%
same,Activity,HL-60 [4],67.37%
same,Activity,MCF7 [23],Active
same,Activity,MCF7 [24],Active
same,IC50,HL-60 [8],3.24 µM
same,Activity,MCF7 [25],inactive
same,Activity,MCF7 [26],Active
same,Activity,DNA [27],inactive
same,Activity,MCF7 [28],Active
same,Activity,DNA [29],1%
same,Activity,HL-60 [30],0.35%
same,Activity,MCF7 [31],Active
same,Activity,MCF7 [32],Active
same,Activity,DNA [33],28%
